Assay results from patent US8993542B2, “Methods of treating viral infections” (priority 2008, dated 2015).

Assays:
HIV-1IIIB = assay: Two-drug combination antiviral assay in CEM cells (CPE), MacSynergy II; assay type: cell-based
HIV = assay: microbe, parasite or virus in culture; assay type: cell-based
[1] = in combination with CMX157, CEM-SS cells, 95% confidence

With `Nc1nc(=O)n(C2CSC(CO)O2)cc1F` (stereo not drawn) [FTC, 2-hydroxymethyl-5-(5-fluorocytosin-1-yl)-1,3-oxathiolane] as the compound, how does the “Antagonism Volume, Result 1” value (HIV-1IIIB; [1]) read?
Its value is 0 nM^2 %, μM^2 % or nMμM %.

What about the “Antagonism Volume, Result 2” value (HIV-1IIIB; [1]) of the same compound?
Its value is 0 nM^2 %, μM^2 % or nMμM %.

What about the “Antagonism Volume, Result 3” value (HIV-1IIIB; [1]) of the same compound?
The value was 0 nM^2 %, μM^2 % or nMμM %.

What about the “Mean Antagonism Volume (n = 3)” value (HIV-1IIIB; [1]) of the same compound?
Its value is 0 nM^2 %, μM^2 % or nMμM %.

What about the “Mean Synergy Volume (n = 3)” value (HIV-1IIIB; [1]) of the same compound?
The value was 72.5 nM^2 %, μM^2 % or nMμM %.

And the “Synergy Volume, Result 1” value (HIV-1IIIB; [1])?
Its value is 61.5 nM^2 %, μM^2 % or nMμM %.

What about the “Synergy Volume, Result 2” value (HIV-1IIIB; [1]) of the same compound?
The value was 72.0 nM^2 %, μM^2 % or nMμM %.

And the “Synergy Volume, Result 3” value (HIV-1IIIB; [1])?
Its value is 84.1 nM^2 %, μM^2 % or nMμM %.

And the “Interpretation of Antiviral Results (MacSynergy)” value (HIV-1IIIB; two-drug combination (with CMX157; control d4T/RBV), CEM-SS cells, listed as emtricitabine)?
The value was “slightly synergistic”.

What about the IC50 (HIV; Human immunodeficiency virus 1, PANEL 1, WT) of the same compound?
The IC50 was 0.89 µM.

And the IC50 (HIV; Human immunodeficiency virus 1, PANEL 2, WT)?
The IC50 was 1.57 µM.

And the IC50 (HIV; Human immunodeficiency virus 1, PANEL 3, 6 TAMs, no 184)?
Its IC50 is 5.73 µM.

And the IC50 (HIV; Human immunodeficiency virus 1, PANEL 6, 6 TAMs + 184)?
Its IC50 is greater than 100 µM.

What about the IC50 (HIV; Human immunodeficiency virus 1, PANEL 7, 184V) of the same compound?
Its IC50 is greater than 100 µM.

What about the IC50 (HIV; Human immunodeficiency virus 1, PANEL 9, 69ins, no 184) of the same compound?
The IC50 was 29.6 µM.

And the IC50 (HIV; Human immunodeficiency virus 1, PANEL 12, 69ins + 184)?
The IC50 was greater than 100 µM.

What about the IC50 (HIV; Human immunodeficiency virus 1, PANEL 14, 65R, no 184) of the same compound?
The IC50 was 19.3 µM.

And the IC50 (HIV; Human immunodeficiency virus 1, PANEL 15, 65R + 184V)?
The IC50 was greater than 100 µM.

What about the IC50 (HIV; Human immunodeficiency virus 1, PANEL 17, L74V) of the same compound?
Its IC50 is 2.14 µM.

And the IC50 (HIV; Human immunodeficiency virus 1, PANEL 19, L74V + M184V)?
The IC50 was greater than 100 µM.

What about the IC50 (HIV; Human immunodeficiency virus 1, PANEL 26, 151M, no 184) of the same compound?
Its IC50 is 34.7 µM.

And the IC50 (HIV; Human immunodeficiency virus 1, PANEL 28, 151M + 184)?
The IC50 was greater than 100 µM.

And the IC50 (HIV; Human immunodeficiency virus 1, PANEL 29, L74V − SDM)?
The IC50 was 1.68 µM.

And the IC50 (HIV; Human immunodeficiency virus 1, PANEL 30, M184V − SDM)?
Its IC50 is greater than 100 µM.

And the IC50 (HIV; Human immunodeficiency virus 1, PANEL 31, K65R − SDM)?
Its IC50 is 12.9 µM.

And the IC50 (HIV; Human immunodeficiency virus 1, PANEL 33, T215Y)?
The IC50 was 2.64 µM.

What about the IC50 (HIV; Human immunodeficiency virus 1, PANEL 34, T215Y + M184V) of the same compound?
The IC50 was greater than 100 µM.

And the IC50 (HIV; Human immunodeficiency virus 1, PANEL 35, M41L + T215Y)?
Its IC50 is 3.13 µM.

And the IC50 (HIV; Human immunodeficiency virus 1, PANEL 37, M41L + T215Y + M184V)?
Its IC50 is greater than 100 µM.

What about the IC50 (HIV; Human immunodeficiency virus 1, PANEL 38, M41L + L210W + T215Y) of the same compound?
Its IC50 is 4.22 µM.

What about the IC50 (HIV; Human immunodeficiency virus 1, PANEL 39, M41L + L210W + T215Y) of the same compound?
The IC50 was 2.16 µM.

What about the IC50 (HIV; Human immunodeficiency virus 1, PANEL 40, M41L + L210W + T215Y + M184V) of the same compound?
The IC50 was greater than 100 µM.

What about the IC50 (HIV; Human immunodeficiency virus 1, PANEL 41, M41L + L210W + T215Y + M184V) of the same compound?
The IC50 was greater than 100 µM.

And the IC50 (HIV; Human immunodeficiency virus 1, PANEL 42, D67N + K70R)?
The IC50 was 3.28 µM.

And the IC50 (HIV; Human immunodeficiency virus 1, PANEL 44, D67N + K70R + T215F + K219E + M184V)?
The IC50 was greater than 100 µM.

What about the IC50 (HIV; Human immunodeficiency virus 1, PANEL 45, L210W + T215Y) of the same compound?
The IC50 was 2.62 µM.

What about the IC50 (HIV; Human immunodeficiency virus 1, PANEL 46, D67N + K70E) of the same compound?
Its IC50 is 3.39 µM.

What about the IC50 (HIV; Human immunodeficiency virus 1, PANEL 47, D67N + K70E + M184V) of the same compound?
Its IC50 is greater than 100 µM.

And the IC50 (HIV; Human immunodeficiency virus 1, PANEL 48, K70E + M184V)?
The IC50 was greater than 100 µM.

And the “IC50 Fold Change” value (HIV; PANEL 1, WT)?
The value was 0.78.

What about the “IC50 Fold Change” value (HIV; PANEL 2, WT) of the same compound?
Its value is 1.38.

What about the “IC50 Fold Change” value (HIV; PANEL 3, 6 TAMs, no 184) of the same compound?
The value was 5.02.

What about the “IC50 Fold Change” value (HIV; PANEL 6, 6 TAMs + 184) of the same compound?
Its value is greater than 87.6048.

And the “IC50 Fold Change” value (HIV; PANEL 7, 184V)?
Its value is greater than 87.6048.

What about the “IC50 Fold Change” value (HIV; PANEL 9, 69ins, no 184) of the same compound?
The value was 26.00.

What about the “IC50 Fold Change” value (HIV; PANEL 12, 69ins + 184) of the same compound?
Its value is greater than 87.6048.

What about the “IC50 Fold Change” value (HIV; PANEL 14, 65R, no 184) of the same compound?
The value was 17.00.

And the “IC50 Fold Change” value (HIV; PANEL 15, 65R + 184V)?
Its value is greater than 87.6048.

What about the “IC50 Fold Change” value (HIV; PANEL 17, L74V) of the same compound?
The value was 1.87.

What about the “IC50 Fold Change” value (HIV; PANEL 19, L74V + M184V) of the same compound?
Its value is greater than 87.6048.

And the “IC50 Fold Change” value (HIV; PANEL 26, 151M, no 184)?
Its value is 30.00.

What about the “IC50 Fold Change” value (HIV; PANEL 28, 151M + 184) of the same compound?
The value was greater than 87.6048.

And the “IC50 Fold Change” value (HIV; PANEL 29, L74V − SDM)?
Its value is 1.47.

And the “IC50 Fold Change” value (HIV; PANEL 30, M184V − SDM)?
Its value is greater than 87.6048.

And the “IC50 Fold Change” value (HIV; PANEL 31, K65R − SDM)?
Its value is 11.00.

What about the “IC50 Fold Change” value (HIV; PANEL 33, T215Y) of the same compound?
Its value is 2.31.

And the “IC50 Fold Change” value (HIV; PANEL 34, T215Y + M184V)?
Its value is greater than 87.6048.

And the “IC50 Fold Change” value (HIV; PANEL 35, M41L + T215Y)?
The value was 2.74.

What about the “IC50 Fold Change” value (HIV; PANEL 37, M41L + T215Y + M184V) of the same compound?
Its value is greater than 87.6048.

And the “IC50 Fold Change” value (HIV; PANEL 38, M41L + L210W + T215Y)?
Its value is 3.70.

And the “IC50 Fold Change” value (HIV; PANEL 39, M41L + L210W + T215Y)?
The value was 1.89.

What about the “IC50 Fold Change” value (HIV; PANEL 40, M41L + L210W + T215Y + M184V) of the same compound?
Its value is greater than 87.6048.

And the “IC50 Fold Change” value (HIV; PANEL 41, M41L + L210W + T215Y + M184V)?
The value was greater than 87.6048.

What about the “IC50 Fold Change” value (HIV; PANEL 42, D67N + K70R) of the same compound?
The value was 2.87.

What about the “IC50 Fold Change” value (HIV; PANEL 44, D67N + K70R + T215F + K219E + M184V) of the same compound?
The value was greater than 87.6048.

And the “IC50 Fold Change” value (HIV; PANEL 45, L210W + T215Y)?
Its value is 2.29.

What about the “IC50 Fold Change” value (HIV; PANEL 46, D67N + K70E) of the same compound?
The value was 2.97.

What about the “IC50 Fold Change” value (HIV; PANEL 47, D67N + K70E + M184V) of the same compound?
Its value is greater than 87.6048.

What about the “IC50 Fold Change” value (HIV; PANEL 48, K70E + M184V) of the same compound?
Its value is greater than 87.6048.
